One experiment deals with rat A10 cells. As to the kind of experiment: Activity for inhibiting proliferation of rat A10 cells ([3H]-thymidine uptake). Format: cell-based. The conditions noted are these: A10, 1% FBS stimulation, 24 hours, read-out: Activity for inhibiting proliferation of rat A10 cells [IC50 (μM)]. The method, then:
(2) Measurement of the Activity for Inhibiting Proliferation of Rat A10 Cells
Test was conducted by the modified method of N. Morisaki [Atherosclerosis, Vol. 71, (1988), pp. 165-171]. The rat A10 cells (purchased from Dainippon Pharmaceutical Co., Ltd.) were inoculated on a 24 wells immunoplate at a density of 10,000 cells/well, and were cultured in 10% FBS (fetal bovine serum) for 2 days, and in order to introduce the cells into the resting stage, the cells were further cultured in a serum-free medium for 2 days. After that, 1% FBS was added thereto for stimulating the proliferation, of the cells and at the same time, a test compound and 0.5 μCi/well of [^3 H]-thymidine were added. As to the index of synthesized amount of DNA, the quantity of [^3 H]-thymidine being uptaken by the cells was measured at the time of 24 hours after the final cultivation was started.

For a further experiment, the system named is rat mesangial cells. As to the kind of experiment: Activity for inhibiting proliferation of rat mesangial cells (PDGF-BB, [3H]-thymidine uptake). The format is cell-based. The conditions noted are these: Mesangial cell, 5 ng/ml PDGF-BB, 0.5% FCS. An excerpt:
(7) Determination of the Activity for Inhibiting Proliferation of Rat Mesangial Cells
In accordance with the method of F. Jaffer, et al. [Am. J. Pathol., Vol. 135, (1989), pages 261-269], the mesangial cells were collected. Under anesthetized condition, the kidney of a rat was aseptically enucleated and the medulla renis was cut out, then the cortex renis was pressed to a sieve (120 mesh) made of stainless steel. The fraction of cortex renis passed through the sieve was put on another sieve of 200 mesh and washed with PBS (phosphate-buffered saline), the fraction being remained on the sieve was confirmed as the glomerulus. This fraction was cultured in RPMI 1640 medium [containing 15% of fetal calf serum (FCS), and 5 μg/ml of insulin] for 4 weeks. This fraction was further subcultured twice, and the remaining cells were thought of as the mesangial cells for use of this experiment.
Determination of the activity for inhibiting proliferation of rat mesangial cells was conducted in accordance with the method of M. B. Ganz, et al. [Am. […]
Thus 2×10^4 /ml of mesangial cells were inoculated on a culture plate (48 wells, each well having the capacity of 0.5 ml), and cultured with RPMI medium (containing 15% FCS) for 3 days. […] The supernatant of the culture medium was taken up, and the amount of [^3 H]-thymidine up-taken into the cells was measured by use of scintillation counter.

The text below walks through data of patent US5998437A, “Benzimidazole derivatives” (Otsuka Pharmaceutical Co., Ltd., priority 1995, dated 1999).

For `O=C(Nc1ccc2c(ccn2CCCn2ccnc2)c1)c1nc2ccc(Cl)cc2n1Cc1ccccc1` [Example 3, 1-benzyl-6-chloro-2-{1-[3-(imidazol-1-yl)propyl]indol-5-ylamino-carbonyl}benzimidazole], the results for the IC50 with rat A10 cells and in the experiment on rat mesangial cells were 0.5 µM and 790 nM, respectively.
